Entries after “also recorded” stand apart in the source; their conditions may differ.
Experiments:
exocrine pancreas [1] = assay: Beagle study Part B: comparison of (R,R)- v. (S,S)-(HO)2DEHSPM; assay type: in vivo, beagles
From the text: As the pancreatic insufficiency side-effect that was observed after the administration of the (R,R)—(HO)2DEHSPM to the beagles may have been related to the (R,R)-chirality of the molecule, the (S,S)-enantiomer was synthesized and was compared in a head-to-head fashion with the (R,R)-enantiomer. To perform this experiment, five male beagles approximately 6-8 months of age were obtained from Harlan Sprague Dawley. There were provided with food and water ad libitum and were allowed to acclimate to their new surroundings for two weeks. The animals were weighed prior to starting drug administration and were weighed once per week during the drug dosing period. A CBC and chemistry panel and a Holter monitor were performed once per week. In addition to the usual tests, additional pancreatic function-specific tests were also performed. These additional evaluations included a fecal trypsin test, examination of the feces for fecal fat and serum trypsin-like immunoreactivity determinations. It was hoped that these signs of pancreatic insufficiency would only appear in the animals given the (R,R)-enantiomer and would not be observed in the dogs that were given the (S,S)-molecule. The pancreatic insufficiency may not become evident until approximately 7-8 weeks post-drug. At the conclusion of the experiment, all of the animals were sacrificed and the histology and tissue polyamine levels were determined.
Five male beagles approximately 6-8 months of age were obtained from Harlan Sprague Dawley. They were provided with food and water ad libitum and were allowed to acclimate to their new surroundings for two weeks. Once two sets of baseline data were obtained, the animals were randomly divided into three groups: two of the dogs (#468 and 500) received the (R,R)—(HO)2DEHSPM; two of the animals (#440 and 476) were given (S,S)—(HO)2DEHSPM; and one dog (#452) served as an untreated (saline only) control. The dogs were given the (R,R)—or (S,S)—(HO)2DEHSPM at a dose of 4.3 mg/kg/day subcutaneously in divided doses, 2.15 mg/kg BID.
The animals were weighed weekly during the acclimation period, the drug dosing period and throughout the post-drug observational period. A CBC, chemistry panel and pancreatic function tests (trypsin-like immunoreactivity, fecal trypsin, fecal fat, etc.) were performed once per week. Additional tests, e.g., glucose tolerance and fat absorption, were performed as necessary. The dogs were Holter monitored twice during the acclimation period and then weekly during drug dosing.

[2] = Beagle study Part A: long-term toxicity and pancreatic function after (R,R)-(HO)2DEHSPM; assay type: in vivo, beagles; conditions: for SGPT / alkaline phosphatase: approximately 60-days post-drug
Procedure: (§1) Five male beagles approximately 6-8 months of age were obtained from Harlan Sprague Dawley. They were provided with food and water ad libitum and were allowed to acclimate to their new surroundings for two weeks. The animals were weighed prior to starting drug administration and were weighed once per week during the drug dosing period. A CBC and chemistry panel were performed every 1-2 weeks. The drug study was performed in two stages. In the first phase, three animals were given the drug at 2.15 mg/kg/day (dogs #516, 518 and 526). In the second phase, the other two dogs were given the drug at 4.3 mg/kg/day (dogs #490 and 494). In both experiments, the daily drug dose was divided and administered twice daily at 12-hour intervals.
(§2) The results of the long-term washout and subsequent toxicity of the (R,R)—(HO)2DEHSPM are summarized. Briefly, the drug was initially thought to be well tolerated at the 2.15 mg/kg/day dose. In order to compare the long-term washout of the (HO)2DEHSPM as compared to DEHSPM, it was decided not to sacrifice the animal (#516) until 75-days post-drug. […] Chronic pancreatitis or intestinal malabsorption was suspected. […] Inasmuch as the dog was imminently scheduled for sacrifice, no treatment was initiated. At necropsy 75-days post-drug, there was little, if any, abdominal fat and the animal's pancreas was atrophied as described below.
(§3) However, approximately 55-60 days post-drug, it was noted that although the dogs in the 4.3 mg/kg/day group (#490 and 494) were eating well and were bright, alert and responsive, they began losing weight (2 kg). […] In order to further confirm the exocrine pancreatic insufficiency, additional experiments were performed.
(§4) The two dogs (#490 and 494) were fed a prescription canned and dry dog food and were supplemented with Viokase, a pancreatic enzyme preparation, by mixing three tablets with food or by oral administration immediately before each feeding. The dogs were maintained on this regimen for approximately three weeks. During this time, their weight and blood chemistries were closely monitored. The Viokase supplementation was then stopped and the same parameters were again evaluated. One week after the Viokase administration had ceased, the animals were euthanized and tissues were taken for histology and for the determination of tissue polyamine levels.

exocrine pancreas [3] = assay: as above; assay type: in vivo, beagles
Procedure: as §1, §2, §3, §4

[4] = Non-tumor-bearing toxicity controls, same regimens; assay type: in vivo; conditions: group 3, NTB; IV QD 3, 4, 6-9, 14, 17, 18; total dosage 240 mg/kg
[5] = 4.3 mg/kg/day sc for 13 days, post-drug
[6] = approximately five weeks post-drug, 4.3 mg/kg/day sc for 13 days
[7] = dog #468, 4.3 mg/kg/day sc for 13 days
[8] = dog #500, 4.3 mg/kg/day sc for 13 days
[9] = dog #516, 2.15 mg/kg/day, approximately two months post-drug
[10] = dogs #490 and 494, 4.3 mg/kg/day, approximately 55-60 days post-drug

## CCNCC[C@@H](O)CNCCCCNC[C@H](O)CCNCC.Cl.Cl.Cl.Cl [(R,R)-(HO)2DEHSPM, N^1,N^14-Diethyl-3(R) 12(R)-dihydroxyhomospermine tetrahydrochloride]
Exocrine pancreas [1]; 4.3 mg/kg/day sc for 13 days, 52- to 64-days post-drug
  histopathology of pancreas at necropsy: moderate to severe atrophy of the exocrine pancreases
Exocrine pancreas [1]; [5]
  alopecia: also noted
  diagnosis from pancreatic function tests: confirmed a diagnosis of exocrine pancreatic insufficiency
  glucose tolerance test (endocrine pancreas): “normal” response
  post-feeding serum samples after a fatty meal: clear, indicating an inability to digest fats
Exocrine pancreas [1]; 4.3 mg/kg/day sc for 13 days, until euthanasia 52- to 64-days post-drug
  clinical course: continued to deteriorate
Exocrine pancreas [1]; 10-days post-drug
  histology of pancreatic tissue samples: no histological abnormalities
Exocrine pancreas [1]; [6]
  TLI: began to decrease
  fecal trypsin test results: abnormal
Exocrine pancreas [1]; approximately five weeks post-drug, 4.3 mg/kg/day sc for 13 days, both dogs of group
  body weight: began losing weight very rapidly
Exocrine pancreas [1]; [7]
  frank and/or occult blood in stool, found until: about 17 days post-drug
  loss of body weight at end of drug dosing period: 1.4 kg
Exocrine pancreas [1]; dog #468, day thirteen of drug administration, 4.3 mg/kg/day sc, 4.3 mg/kg/day
  clinical signs: bloody diarrhea and anorexia; also recorded: developed bloody diarrhea and stopped eating
Exocrine pancreas [1]; dog #468, returned to normal during the 3.5 hours
  blood glucose level in glucose tolerance test: exceeded 160 mg/dl
Exocrine pancreas [1]; [8]
  clinical signs: developed bloody diarrhea one-day post-drug
  gain of body weight at end of drug dosing period: 0.4 kg
Exocrine pancreas [1]; dogs #468 and 500, 52- and 58-days post-drug
  pancreas at necropsy, gross appearance: greatly atrophied (about one-fourth the control weight)
[2]; dog #490, 4.3 mg/kg/day
  SGPT: 1108 U/L
  alkaline phosphatase: 542 U/L
[2]; dog #494, 4.3 mg/kg/day
  SGPT: 776 U/L
  alkaline phosphatase: 436 U/L
[2]; [9]
  SGPT (routine chemistry panel): elevated
[2]; [10]
  SGPT (blood chemistries): elevated
Exocrine pancreas [3]; 75-, 78-, 88- and 92-days post-treatment, all cases
  pancreas at necropsy: Severe atrophy
Exocrine pancreas [3]; 75-days post-treatment sample
  histopathology of pancreatic sample: moderate to severe pancreatitis
Exocrine pancreas [3]; both dogs #490 and 494, 4.3 mg/kg/day, throughout Viokase and post-Viokase periods
  trypsin-like immunoreactivity (TLI): below 2.0 ng/ml
Exocrine pancreas [3]; dog #516, 2.15 mg/kg/day
  serum trypsin-like immunoreactivity test: confirmed the presence of exocrine pancreatic insufficiency
Exocrine pancreas [3]; dog #516, 2.15 mg/kg/day, 75-days post-drug
  pancreas at necropsy: atrophied
Exocrine pancreas [3]; [9]
  body weight: begun losing weight
  fecal check (fat in stool): large amount of fat
Exocrine pancreas [3]; dogs #490 and 494, 4.3 mg/kg/day
  qualitative fecal fat and trypsin-like immunoreactivity: confirmed the presence of exocrine pancreatic insufficiency
Exocrine pancreas [3]; [10]
  weight loss: 2 kg
Exocrine pancreas [3]; dogs #490 and 494, 4.3 mg/kg/day, one week after Viokase ceased
  pancreas at necropsy: severely atrophied
Exocrine pancreas [3]; dogs #490 and 494, 4.3 mg/kg/day, throughout the experiment
  glucose levels (endocrine functionality): normal
[4]
  Percent Body Wt. Loss: 30%

— patent US20080108706A1, “Chemical resection of pancreas” (priority 1999, published 2008)
